According to patent US20150051186A1, “ARYL AZETIDINE DERIVATIVES AS SPHINGOSINE-1 PHOSPHATE RECEPTORS MODULATORS” (Allergan, Inc., priority 2013, published 2015):

Biological target: T1, human S1P1 receptor (Homo sapiens, UniProt P21453)
T1 construct: expressed in transfected cells; membranes were used
Assay: GTP γ35S binding assay for S1P1 activity
Assay type: biochemical
Conditions: membranes of cells stably expressing the S1P1 receptor, agonist potency
Procedure: Compounds were synthesized and tested for S1P1 activity using the GTP γ^35S binding assay. These compounds may be assessed for their ability to activate or block activation of the human S1P1 receptor in cells stably expressing the S1P1 receptor.
GTP γ^35S binding was measured in the medium containing (mM) HEPES 25, pH 7.4, MgCl2 10, NaCl 100, dithiothreitol 0.5, digitonin 0.003%, 0.2 nM GTP γ^35S, and 5 μg membrane protein in a volume of 150 μl. Test compounds were included in the concentration range from 0.08 to 5,000 nM unless indicated otherwise. Membranes were incubated with 100 μM 5′-adenylylimidodiphosphate for 30 min, and subsequently with 10 μM GDP for 10 min on ice. Drug solutions and membrane were mixed, and then reactions were initiated by adding GTP γ^35S and continued for 30 min at 25° C. Reaction mixtures were filtered over Whatman GF/B filters under vacuum, and washed three times with 3 mL of ice-cold buffer (HEPES 25, pH7.4, MgCl2 10 and NaCl 100). Filters were dried and mixed with scintillant, and counted for ^35S activity using a β-counter. Agonist-induced GTP γ^35S binding was obtained by subtracting that in the absence of agonist. Binding data were analyzed using a non-linear regression method. In case of antagonist assay, the reaction mixture contained 10 nM […] in the presence of test antagonist at concentrations ranging from 0.08 to 5000 nM.

T1 sequence (P21453 whole entry): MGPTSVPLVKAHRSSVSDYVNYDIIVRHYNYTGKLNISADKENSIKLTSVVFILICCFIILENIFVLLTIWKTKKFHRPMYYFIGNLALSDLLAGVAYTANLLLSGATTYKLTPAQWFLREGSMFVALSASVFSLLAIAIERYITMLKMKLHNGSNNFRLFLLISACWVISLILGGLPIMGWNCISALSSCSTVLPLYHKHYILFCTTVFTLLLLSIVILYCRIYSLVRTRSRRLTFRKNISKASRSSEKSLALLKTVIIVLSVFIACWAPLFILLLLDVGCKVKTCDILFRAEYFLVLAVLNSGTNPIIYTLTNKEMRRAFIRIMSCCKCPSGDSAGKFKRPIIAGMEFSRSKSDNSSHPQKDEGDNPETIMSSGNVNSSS

Compound	EC50 [nM]
Cc1ccc(CC(CCCCCCN2CC(C(=O)O)C2)c2cccc(Cl)c2)cc1C (stereo not shown) [Compound 3, 1-[7-(3-Chlorophenyl)-8-(3,4-dimethylphenyl)octyl]azetidine-3-carboxylic acid]	801
O=C(O)C1CN(CCCCCCCCC(Cc2ccccc2)c2cccc(Cl)c2)C1 (stereo not shown) [Compound 1, 1-[9-(3-Chlorophenyl)-10-phenyldecyl]azetidine-3-carboxylic acid]	129
Cc1ccc(CC(CCCCCCCN2CC(C(=O)O)C2)c2cccc(Cl)c2)cc1C (stereo not shown) [Compound 4, 1-[8-(3-Chlorophenyl)-9-(3,4-dimethylphenyl)nonyl]azetidine-3-carboxylic acid]	644
Cc1ccc(CC(CCCCCCCN2CC(C(=O)O)C2)c2cc(F)cc(F)c2)cc1C (stereo not shown) [Compound 2, 1-[8-(3,5-Difluorophenyl)-9-(3,4-dimethylphenyl)nonyl]azetidine-3-carboxylic acid]	61.4
